# Results published in patent publication US20260191974A1, “B7-H3 TARGETING LIGANDS AND METHODS OF USE” (The University of North Carolina at Chapel Hill, priority 2022, published 2026).
# Values joined by “and” are separate entries in the source; they are usually repeats but may differ in a detail not shown here. Identical values can stand only once. *1 amine or outer side, *2 acyl side, *3 side chain or, on linkers, in order; H or OH if unused. Where a SMILES comes first, the peptide text is derived from it. Bridges are numbered along the chain shown (N, C = ends). Where no end group is shown, it is not given here. [ ]: non-standard residue; d: D form. ξ: configuration not given here. mXylylene = c1cc(C[*:1])cc(C[*:2])c1; Nle = CCCC[C@H](N)C(=O)O; ξP = O=C(O)C1CCCN1
# Experiments:
# B7-H3 [1] = molecular target: T1, B7-H3 (Homo sapiens, UniProt Q5ZPR3); assay: mRNA display validation assay of NGS hits against B7-H3; type: binding; conditions: naïve NNK10 library as a control
# T1 sequence (Q5ZPR3 29-534): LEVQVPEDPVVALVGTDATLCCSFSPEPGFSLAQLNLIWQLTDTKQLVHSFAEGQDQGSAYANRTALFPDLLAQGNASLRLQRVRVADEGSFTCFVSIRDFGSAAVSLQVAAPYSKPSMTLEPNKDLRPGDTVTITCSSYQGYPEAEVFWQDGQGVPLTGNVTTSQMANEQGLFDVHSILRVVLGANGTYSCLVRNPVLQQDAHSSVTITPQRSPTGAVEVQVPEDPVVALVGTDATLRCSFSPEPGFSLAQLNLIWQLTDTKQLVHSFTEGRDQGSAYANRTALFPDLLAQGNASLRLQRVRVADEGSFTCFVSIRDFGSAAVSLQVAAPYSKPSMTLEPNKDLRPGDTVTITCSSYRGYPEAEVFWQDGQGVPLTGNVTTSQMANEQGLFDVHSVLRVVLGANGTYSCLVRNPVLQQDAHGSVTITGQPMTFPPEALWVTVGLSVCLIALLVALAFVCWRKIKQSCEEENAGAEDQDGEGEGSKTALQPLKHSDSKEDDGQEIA
# Description: FIGS. 11A-11F. Dibromoxylene (DBX) mediated B7-H3 selection. (FIG. 11A) Selection schematic details the selection process for identifying binders against B7-H3 using DBX. (FIG. 11B) qPCR results of the DBX mediated B7-H3 selection. (FIG. 11C) Mean frequency vs. number of sequences. (FIG. 11D) NGS data of the selection hits from Selections (rounds 3 and 5), named sequences indicate sequences purchased for binding validation. (FIG. 11E) Validation assay identified hits from NGS data run through the selection process (outlined in (FIG. 11A)), with the naïve NNK10 library as a control.
# A background screen against selection components is carried out prior to the selection against B7-H3 to remove non-specific binders. FIG. 11D includes sequences from NGS data with named sequences evaluated for binding validation. […] Exemplary DBX hit structures are shown in FIG. 12, with points of cargo attachment designated with arrows.
# [2] = tested on: Raji cells expressing murine B7-H3; assay: Live imaging with GFP-tagged endosome/lysosome reporters in Raji cells expressing murine B7-H3; type: cell-based; conditions: JP3-PEG-TAMRA or JP5-PEG-TAMRA at 250 nM for 5 hours
# Experimental: FIGS. 22A-22B. Live imaging of an example targeting ligand uptake in Raji cells expressing murine B7-H3 pre-incubated with GFP-tagged reporters for early (Rab5a) and late (Rab7a) endosomes or early (Lamp1) lysosomes. Cells were treated with JP3-PEG-TAMRA (FIG. 22A) or JP5-PEG-TAMRA (FIG. 22B) at 250 nM for 5 hours, cytospun with live cell imaging subsequently performed.
# Live imaging of an example targeting ligand uptake in Raji cells expressing murine B7-H3 pre-incubated with GFP-tagged reporters for early (Rab5a) and late (Rab7a) endosomes or early (Lamp1) lysosomes is shown in FIG. 22A (JP3) and FIG. 22B (JP5).
# [3] = Serum stability in 50% fetal bovine serum; type: in vitro ADME; conditions: 37° C., read-out: peptide remaining intact
# Experimental: Serum stability of JP3 and JP5 was assessed. Peptides (JP3 or JP5) were incubated in 50% fetal bovine serum (diluted in media) at 37° C. and samples were taken over a time course spanning 24 h. Samples were mixed with cold methanol to crash out serum protein, and the supernatant containing the peptides was collected and run on MS to determine the amount of peptide present at each time point.
# human and murine B7-H3 [4] = assay: Ka (M^-1s^-1)
# Experimental: (§1) Table printed on a drawing sheet, FIG. 24C
# Head of the field: Ka (M^-1s^-1)
# (§2) The patent's description of the figure: FIGS. 24A-24C. SPR analysis of the selected peptides B1.1 and JP5. The B1.1 variant was analyzed at analyte concentrations of 7.5, 15, 30, 60, and 120 nM (FIG. 24A) and the JP5 variant was analyzed at analyte concentrations of 22.2, 66.6, 200, 600 and 1800 nM (FIG. 24B). (FIG. 24C) Binding kinetics of each peptide.
# (§3) First copying reader's note: Bracket lines drawn over and under the sequences mark ring closures that the text cells cannot show: C-C above and Q-K below in oxidized B1.1, Q-K below only in reduced B1.1, and C-C above in JP5.
# (§4) Where the first naming reader finds the target: passage: Surface plasmon resonance was used to evaluate binding of B1.1 and JP5 to both human and murine B7-H3 (FIGS. 24A-24C)
# B7-H3 [5] = assay: ka (M^-1s^-1)
# Description: (§5) Table printed on a drawing sheet, FIG. 4F
# Head of the field: ka (M^-1s^-1)
# (§6) The patent's description of the figure: FIGS. 4A-4G. (FIG. 4A) Selection schematic detailing the selection process for identifying binders against B7-H3. (FIG. 4B) qPCR results of the mTG mediated B7-H3 selection. (FIG. 4C) B7-H3 selection results and complete NGS analysis of B7-H3 hits. (FIG. 4D) NGS data of the selection hits. […] Arrow indicates the peptide pursued for binding validation. (FIG. 4E) EIC ([M+2], 948.91 m/z) traces corresponding to the product of the mTG reaction with linear B1.1 peptide and the synthetic lactam, disulfide peptide. (FIG. 4F) Surface Plasmon Resonance (SPR) analysis of the selected peptide (B1.1), the Met9Nle variant, and the linear variant. […] The selected B1.1 and the Met9Nle variant were analyzed at analyte concentrations of 7.5, 15, 30, 60, 120 nM. The linear variant was analyzed at analyte concentrations of 50, 100, 200, 400, 800 nM. […] (FIG. 4G) Individual SPR curves. Fitted curve and raw data are shown.
# (§7) First copying reader's note: Brackets drawn on the SELECTED and MET9NLE sequences join C to C (above) and Q to K (below), marking a bicyclic peptide; LINEAR has no brackets.
# (§8) Where the first naming reader finds the target: passage: Binding affinities were assessed for each peptide by surface plasmon resonance (SPR) against biotinylated B7-H3.
# biotinylated B7-H3 = molecular target: T2, biotinylated B7-H3 (Homo sapiens, UniProt Q5ZPR3); assay: Surface Plasmon Resonance (SPR) analysis against biotinylated B7-H3; conditions: biotinylated B7-H3, 25° C., 1:1 binding kinetics model
# T2 sequence (Q5ZPR3 29-534): T1 sequence (Q5ZPR3 29-534)
# Description: as §6, with “FIGS.” for “The patent's description of the figure: FIGS.”
# Surface Plasmon Resonance (SPR) analysis. Binding kinetics between our selected peptide (and variants) and biotinylated B7-H3 (B7-H3b) were assessed through SPR analysis using a BIACORE 8K SPR system (GE Healthcare). The running buffer was 1×PBS pH7.5, 0.05% TWEEN® 20 and all analysis was carried out at 25° C. B7-H3b was loaded onto a NeutrAvidin SPR Chip (Series S Sensor Chip NA, 29407997, Cytiva) at a flow rate of […] to a surface density of 1000-1500 response units. Analyte was then injected over a series of five concentrations and quantified by BIACORE single-cycle kinetics method. For our selected peptide (B1.1) and the Met9Nle variant a range of 7.5, 15, 30, 60, 120 nM were run. For the linear variant concentrations of 50, 100, 200, 400, 800 nM were run. Binding sonograms were generated using a standard 1:1 binding kinetics model and kinetics constants determined using standard BIACORE evaluation software.
# B7-H3 [6] = assay: kd (s^-1)
# Description: as §5
# Head of the field: kd (s^-1)
# as §6, §7, §8
# human and murine B7-H3 [7] = assay: KD (nM)
# Experimental: as §1
# Head of the field: KD (nM)
# as §2, §3, §4
Compound,binding in validation assay (B7-H3 [1]),"subcellular localization (Rab5a, Rab7a, Lamp1 reporters) [2]",remaining at 24 h [3] [%],Ka (M^-1s^-1) (human and murine B7-H3 [4]),binding affinity towards B7-H3 (biotinylated B7-H3),also measured
"CC[C@H](C)[C@@H]1NC(=O)[C@@H](NC(C)=O)CSCc2cccc(c2)CSC[C@@H](C(=O)NCC(=O)O)NC(=O)[C@@H]2CCCN2C(=O)[C@H](CC(C)C)NC(=O)[C@H](Cc2ccccc2)NC(=O)[C@H](CCCNC(=N)N)NC(=O)C2CCCN2C(=O)[C@H]([C@@H](C)CC)NC(=O)[C@H](CCCNC(=N)N)NC(=O)[C@H]([C@@H](C)O)NC(=O)[C@H](Cc2c[nH]c3ccccc23)NC(=O)[C@H](C(C)C)NC1=O (stereo partly drawn) [JP3, N-terminal acetylated CIVWTRIPRFLPCG] (Ac-CIVWTRI[ξP]RFLPCG-OH; linker 1-13 via mXylylene)",strong B7-H3 binders,Co-localization of JP3 and Rab5a,~40,,,
"CC[C@H](C)[C@@H]1NC(=O)[C@H](CC(=O)O)NC(=O)[C@H](CCCNC(=N)N)NC(=O)[C@H]([C@@H](C)CC)NC(=O)[C@H]([C@@H](C)O)NC(=O)[C@H](Cc2c[nH]c3ccccc23)NC(=O)[C@@H](NC(C)=O)CSCc2cccc(c2)CSC[C@@H](C(=O)NCC(=O)O)NC(=O)[C@H](CCCNC(=N)N)NC(=O)[C@H]([C@@H](C)O)NC(=O)CNC(=O)[C@H](CC(N)=O)NC1=O [JP5, N-terminal acetylated CWTIRDINGTRCG] (Ac-CWTIRDINGTRCG-OH; linker 1-12 via mXylylene; N-terminus and C-terminus assumed)",strong B7-H3 binders,predominantly cell surface localization of JP5 was observed with some rare evidence of endosomal uptake,80,1.25e^5 and 1.02e^5,,
"CCCC[C@@H]1NC(=O)[C@H](CO)NC(=O)[C@H](Cc2c[nH]cn2)NC(=O)[C@@H]2CSSC[C@H](NC(=O)[C@H]([C@@H](C)O)NC(=O)[C@H](Cc3ccc(O)cc3)NC(=O)[C@H](Cc3ccccc3)NC1=O)C(=O)N[C@H](C(=O)N[C@@H](CO)C(=O)NCC(N)=O)CCCCNC(=O)CC[C@H](NC(=O)[C@H](CC(C)C)NC(=O)[C@H](C)NC(=O)[C@H](Cc1c[nH]c3ccccc13)NC(C)=O)C(=O)N[C@@H](CC(C)C)C(=O)N2 [Met9Nle variant, acWALQLCHSNleFYTCKSG] (Ac-WALELCHS[Nle]FYTCKSG-NH2; lactam 4-14; disulfide 6-13)",,,,,similar,ka (M^-1s^-1) (B7-H3 [5]): 9.55e^5; Kd (biotinylated B7-H3; read-out: binding affinity towards B7-H3): 46.9 nM; kd (s^-1) (B7-H3 [6]): 4.48e^-2
acWALQLCHSNleFYTCKSGK(AZO)G [OXIDIZED B1.1 | 296],,,,,,Kd (human and murine B7-H3 [7]): 161 nM
acWALQLCHSNleFYTCKSGK(AZO)G [REDUCED B1.1 | 294],,,,7.444e^7,,
linear variant of B1.1: linear form of B1.1 without lactam and disulfide cyclization (WALQLCHSMFYTCKSG-NH2; cysteine pairing not given here),,,,,no detectable binding interaction,binding affinity towards B7-H3 (biotinylated B7-H3; listed as linear precursor peptide): did not bind
